Measured values reported in PubChem BioAssay (NCI).
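These data come from cells grown in 96-well plates and exposed to compound for 48 hours at five concentrations. GI50 = concentration required for 50% inhibition of growth. TGI is the concentration that stops growth completely.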 Where a SMILES comes first, the peptide text is derived from it. [ ]: non-standard residue; d: D form. The star is where a group is joined. Phe(4-NO2) = N[CH](Cc1ccc([N+](=O)[O-])cc1)C(=O)O; Boc = CC(C)(C)OC(=O)*

How the values were obtained:
Test in all cases: inhibition of tumour cell growth, NCI panel, 48 h
MOLT-4 leukemia = tested on: MOLT-4 leukemia
RXF 393 renal = tested on: RXF 393 renal
OVCAR-8 ovarian = tested on: OVCAR-8 ovarian
SW-620 colon = tested on: SW-620 colon
MDA-MB-231 breast = tested on: MDA-MB-231 breast
LOX IMVI melanoma = tested on: LOX IMVI melanoma
UACC-62 melanoma = tested on: UACC-62 melanoma
DU-145 prostate = tested on: DU-145 prostate
786-0 renal = tested on: 786-0 renal

| SMILES | TGI (MOLT-4 leukemia) | TGI (RXF 393 renal) | TGI (OVCAR-8 ovarian) | TGI (SW-620 colon) | TGI (MDA-MB-231 breast) | TGI (LOX IMVI melanoma) | TGI (UACC-62 melanoma) | TGI (DU-145 prostate) | TGI (786-0 renal) | GI50 (UACC-62 melanoma) | GI50 (MOLT-4 leukemia) | GI50 (RXF 393 renal) | GI50 (OVCAR-8 ovarian) | GI50 (SW-620 colon) | GI50 (MDA-MB-231 breast) | GI50 (LOX IMVI melanoma) | GI50 (DU-145 prostate) |
| --- | --- | --- | --- | --- | --- | --- | --- | --- | --- | --- | --- | --- | --- | --- | --- | --- | --- |
| COc1cccc(NC(=O)CC(=O)n2nc(-c3ccccc3)c(N=Nc3ccc(Cl)cc3)c2-c2ccccc2)c1 | > 59.3 µM | 75.9 µM | 68.3 µM | > 100 µM | > 100 µM | 38.4 µM | > 72.7 µM | > 100 µM | 64.4 µM | – | – | – | – | – | – | – | – |
| Cn1c2ccccc2n2c3ncccc3c(=O)cc12 | > 100 µM | > 100 µM | > 100 µM | > 100 µM | > 100 µM | > 100 µM | – | > 100 µM | > 100 µM | – | – | – | – | – | – | – | – |
| CC/C=C/c1cc2c(cc1O)CCC1C2CC[C@@]2(C)C1CC[C@@H]2O (stereo not given in full) | 18.8 µM | 7.92 µM | 20.3 µM | 14.2 µM | 18.1 µM | 6.68 µM | 7.91 µM | 14.6 µM | 13.8 µM | 0.485 µM | – | – | – | – | – | – | – |
| COC(=O)/C=C\n1nc(Br)c(=O)[nH]c1=O | – | > 100 µM | > 100 µM | > 100 µM | > 100 µM | > 100 µM | – | > 100 µM | – | – | – | – | – | – | – | – | – |
| COc1ccc(/C=c2\[nH]c3nc(=O)c(N4CCCCC4)c(N)n3c2=O)cc1 | > 100 µM | > 100 µM | > 100 µM | > 100 µM | > 100 µM | > 100 µM | – | > 100 µM | > 100 µM | – | – | – | – | – | – | – | – |
| O=Nc1c(-c2c(O)[nH]c3ccc(I)cc23)[nH]c2ccccc12 | – | 3.81 µM | > 43.4 µM | – | 9.77 µM | > 24.5 µM | 4.45 µM | > 24.6 µM | > 35.1 µM | – | – | – | – | – | – | – | – |
| Cc1ccc(-n2nncc2[Si](C)(C)C)s1 | – | – | > 100 µM | > 100 µM | > 100 µM | > 100 µM | > 100 µM | > 100 µM | > 100 µM | – | – | – | – | – | – | – | – |
| Oc1c(Cl)cc2cc1-c1cc(cc(Cl)c1O)CCc1c(cc(Cl)c(O)c1Cl)-c1cc(Cl)c(c(Cl)c1O)/C=C\2 | > 50 µM | > 50 µM | 16.1 µM | 31.5 µM | – | 20 µM | 18 µM | 16.1 µM | 16.6 µM | – | – | – | – | – | – | – | – |
| COc1ccc(/C=C2\CCCc3ccccc3C2=O)cc1 | 35.3 µM | – | > 44.5 µM | > 100 µM | 42.1 µM | 17.4 µM | 26 µM | 1.74 µM | 12.2 µM | – | – | – | – | – | – | – | – |
| O=[N+]([O-])c1ccc(N2N=C(c3c(O)ccc4ccccc34)CC2c2ccc(Cl)cc2)c([N+](=O)[O-])c1 (stereo not given) | 32.4 µM | 73.5 µM | > 100 µM | > 100 µM | 56.2 µM | – | 60.4 µM | > 100 µM | > 100 µM | – | – | – | – | – | – | – | – |
| O=c1[nH]nc(-c2ccccc2)c2[nH]c3c(c12)Cc1ccccc1-3 | > 25.2 µM | > 42.2 µM | > 100 µM | > 100 µM | – | > 100 µM | 2.69 µM | > 100 µM | > 100 µM | – | – | – | – | – | – | – | – |
| c1ccc2c(Nc3ncco3)cccc2c1 | > 10 µM | – | > 10 µM | > 10 µM | > 10 µM | > 10 µM | > 10 µM | > 10 µM | > 10 µM | – | – | – | – | – | – | – | – |
| CC(C)(C)OC(=O)C(C#N)C(=O)c1ccc(C(=O)O)[nH]1 (stereo not given) | > 100 µM | – | > 100 µM | > 100 µM | > 100 µM | > 100 µM | 45.7 µM | > 100 µM | > 100 µM | – | – | – | – | – | – | – | – |
| COc1cccc2c1OC1c3ccccc3OCC1(O)C2 (stereo not given) | > 100 µM | – | > 100 µM | > 100 µM | > 100 µM | > 100 µM | > 100 µM | > 100 µM | > 100 µM | – | – | – | – | – | – | – | – |
| O=C1CC(c2ccsc2)n2cccc21 (stereo not given) | – | > 100 µM | > 100 µM | > 100 µM | > 100 µM | – | > 100 µM | > 100 µM | > 100 µM | – | – | – | – | – | – | – | – |
| COC(=O)c1c2c(cc3c1CC1(Cc4cc5c(c(C)c4C1)CCC5)C3)CCC2 (stereo not given) | > 100 µM | > 100 µM | > 100 µM | > 100 µM | > 100 µM | > 100 µM | – | > 100 µM | > 100 µM | – | – | – | – | – | – | – | – |
| Oc1ccc(Cl)cc1-c1cc(-c2ccccc2)nc(=S)[nH]1 | > 100 µM | > 100 µM | > 100 µM | > 100 µM | 85.8 µM | > 100 µM | – | > 100 µM | 64 µM | – | – | – | – | – | – | – | – |
| Oc1ccc2ccccc2c1OCc1nnc(CCCCCCCCc2nnc(COc3c(O)ccc4ccccc34)n2Nc2ccccc2)n1Nc1ccccc1 | > 100 µM | > 78 µM | 63.1 µM | > 100 µM | 61.1 µM | – | 26.6 µM | > 70.1 µM | 58.7 µM | – | – | – | – | – | – | – | – |
| COc1cccc(C(C#N)NNC(=O)c2c(Cl)c(Cl)c(Cl)c(Cl)c2-c2nc3ccc(C(=O)c4ccccc4)cc3[nH]2)c1O (stereo not given) | > 100 µM | 9.03 µM | > 100 µM | > 100 µM | > 100 µM | > 100 µM | – | > 100 µM | > 100 µM | – | – | – | – | – | – | – | – |
| CC(=O)/C=C/c1ccccc1 | > 100 µM | > 100 µM | 72.9 µM | > 100 µM | > 100 µM | – | > 100 µM | > 100 µM | 49.1 µM | – | – | – | – | – | – | – | – |
| Cc1cn(C2CC(COCc3ccccc3)N(CCO[Si](C)(C)C(C)(C)C)O2)c(=O)[nH]c1=O (stereo not given) | 32.3 µM | 29 µM | 28.8 µM | 35.6 µM | 33.2 µM | – | 24.3 µM | 31 µM | > 100 µM | – | – | – | – | – | – | – | – |
| CCOC(=O)CCC(NC(=O)C(Cc1ccc([N+](=O)[O-])cc1)NC(=O)OC(C)(C)C)C(=O)NC(CCC(=O)OCC)C(=O)OCC (stereo not given) (Boc-[Phe(4-NO2)]-Glu(OEt)-Glu(OEt)-OEt; configuration not given here) | 6.62 µM | 30.2 µM | 40.3 µM | 40.2 µM | > 100 µM | – | 32.4 µM | – | 30.5 µM | – | – | – | – | – | – | – | – |
| c1ccc2c[n+](CCCC[n+]3ccc4ccccc4c3)ccc2c1 | – | > 100 µM | > 100 µM | > 100 µM | > 100 µM | > 100 µM | > 100 µM | > 100 µM | > 100 µM | – | – | – | – | – | – | – | – |
| COc1cc(S(=O)(=O)Nc2ccc(-c3csc(N4C(=O)C(Cl)C4c4ccccc4O)n3)cc2)ccc1Cl (stereo not given) | 41.7 µM | 52.6 µM | > 100 µM | > 100 µM | – | 3.56 µM | 59.1 µM | 66.6 µM | > 100 µM | – | – | – | – | – | – | – | – |
| O=C(Nc1ccc(-n2cc(-c3ccncc3)c(-c3ccc(O)c(Cl)c3)n2)cc1)c1ccc(Cl)c(C(F)(F)F)c1 | 34.2 µM | 1.64 µM | 9.58 µM | > 50 µM | 1.56 µM | 6.88 µM | 14.2 µM | > 50 µM | – | 3.38 µM | 1.69 µM | 0.717 µM | 1.84 µM | 2.38 µM | 0.735 µM | 1.12 µM | 3.35 µM |
